Assay results taken from patent publication US20240299484A1, “DILEUCINE COMPOSITIONS AND METHODS OF USE THEREOF” (Ingenious Ingredients, LP, priority 2023, published 2024).
Marks after values point to notes of the source that are not given here.

What was measured:
Type in all cases: in vivo, Swiss Albino mice
[1] = Effect on body weight, 28-day oral supplementation with exercise; settings: for Body Weight (grams) Day −0: Day −0 (baseline); for Body Weight (grams) Day −0 / Body Weight (grams) Day −28: mice, n = 8; for Weight gain in grams: Day −0 to Day −28, oral once a day; for Body Weight (grams) Day −28: Day −28, oral once a day for 28 days; for Percentage weight loss over control: weight gain vs Exercise Control, 28 days
Experimental: (§1) Eight 8-week-old male Swiss Albino mice per experimental group were housed in an animal room at a constant temperature (22±3° C.) and humidity (30%-70%) under a 12:12 h light-dark cycle with standard laboratory diet (Purina 5L79, Rat and Mouse 18% protein; PMI Nutrition International, Brentwood, MO, USA). Distilled water was provided ad libitum. All animal experiments were reviewed and approved by the Institutional Animal Ethical Committee (IAEC) of Radiant Research Services Pvt. Ltd (Bangalore, India). All research was conducted in accordance with the guidelines of the committee for the purpose of control and supervision of experiments on animals (CPCSEA Registration Number-1803/PO/RcBi/S/2015/CPCSEA).
(§2) After one week of acclimation, the animals were randomly divided by body weight into different groups (n=8 per group in each test) for oral treatment once a day, at approximately same time each day (+1 hour), for 28 consecutive days: (1) vehicle control; (2) paraxanthine (3) dileucine; (4) paraxanthine+dileucine; (5) L-arginine; (6) L-arginine+dileucine; (7) L-citrulline; and (8) L-citrulline+dileucine. The dose administered to the mice was calculated using US Food and Drug Administration for human equivalence doses (HED), assuming a human weight of 60 kg. The following HED were used in this study: 2,000 mg dileucine (RAMPS™, Ingenious Ingredients, L.P., Lewisville, TX, USA; mouse 411 mg/kg bw), 100 mg paraxanthine, (ENFINITY™, Ingenious Ingredients, L.P Lewisville, TX, USA; mouse dose: 20.5 mg/kg bw/day); 3,000 mg L-arginine (Nanjing Nutrabuilding Bio-tech Co., LTD., No. 270 Jiqingmen Strect, Suning Huigu, Building E6, Room 2105, Nanjing, China 210017; mouse 616.55 mg/kg bw), 3,000 mg L-citrulline (Nanjing Nutrabuilding Bio-tech Co., LTD., No. 270 Jiqingmen Street, Suning Huigu, Building E6, Room 2105, Nanjing, China 210017; mouse 616.55 mg/kg bw). 0.5% Carboxy Methyl Cellulose sodium was used as vehicle and the test item formulations were prepared daily. Dosing was conducted via oral gavage using disposable polypropylene syringes with sterilized stainless steel gavage tubes. The food intake and water consumption were monitored daily, and BW was recorded weekly. The last dose on day 28 was given 1 hour prior to testing.
Individual body weights were recorded at receipt, on the day of randomization, on the first day of treatment before dosing (Day 1) and weekly thereafter. The body weight changes for all the animals were calculated and reported along with the body weight data.

[2] = Treadmill exercise / endurance test; parameters: Percentage Increase over control (number of shocks) / Percentage Increase over control (time on shock zone) / Percentage Increase over control (distance travelled): concentration or dose not given beside the values; settings: for Distance travelled (m) by mice during treadmill exercise Day −0 / No. of shocks during treadmill exercise Day −0 / Time spent on shock zone during excercise [sec] Day −0: Day −0 (baseline), n = 8, mice; for No. of shocks during treadmill exercise Day −28 / Time spent on shock zone during excercise [sec] Day −28: Day −28, oral once a day for 28 days; for Distance travelled (m) by mice during treadmill exercise Day −28: Day −28, until exhaustion, oral once a day for 28 days; for Distance Increase over Day −0 / No of Shocks Decrease over Day −0 / Time spent on shock zone over Day −0: Day −28 minus Day −0; for Percentage Increase over control (time on shock zone): change vs Exercise Control; for Percentage Increase over control (time on shock zone) / Percentage Increase over control (number of shocks) / Percentage Increase over control (distance travelled): 28 days; for Percentage Increase over control (number of shocks): decrease in shocks vs Exercise Control; for Percentage Increase over control (distance travelled): increase vs Exercise Control
Experimental: as §1, §2
During the treatment period, exercise training was completed using a motorized treadmill (Exer 3/6, Columbus Instruments international, OH, USA) at a moderate intensity of 20 cm/sec as maximal running speed, an incline of ten degrees and a shock intensity of 0.2 mA, for ten minutes. The speed of the treadmill was manually adjusted by increasing the belt speed by 5 cm/sec every two minutes throughout the total duration of ten minutes. All animals were adapted to this procedure daily 60 minutes after dosing for five days in a week during the treatment period.
On 28th day of each respective treatment, all animals were subjected to a muscle endurance test. Muscle endurance was accomplished on a motorized treadmill at a low to moderate intensity of 5-50 cm/sec as maximal running speed, an incline of ten degrees and a shock intensity of 0.2 mA, with the belt speed being increased by 5 cm/sec every two minutes until it reaches 50 cm/sec. Animals were subjected to the treadmill test until exhaustion. Distance traveled (m) was measured as a marker of exercise performance.

[3] = tested on: low-density lipids (LDL); assay: Blood lipids: LDL; settings: for LDL: after 28 days of supplementation, mice, n = 8; for LDL Change over control [%]: vs Exercise Control, 28 days
Experimental: as §1, §2
(§3) All animals were euthanized by 95% CO2 after 28 days of following their assigned treatment. Blood was collected immediately after euthanization by the retro-orbital route and was immediately centrifuged at 1500×g for 10 min at 4° C. before having all serum transferred into cryogenic tubes and stored at −80° C.
(§4) Serum and plasma samples were separated by centrifuging the blood at 8000 rpm for 10 mins and analyze the below mentioned biomarkers, Biomarkers: TC, TG, LDL and HDL, CRP, Serum lactate, Ammonia, Glucose, NO, IL-2, IL-6, IL-10. Blood was collected in EDTA tubes for below mentioned biomarkers, Immune health Biomarkers (T helper subsets): TH1, TH2, TH17, Tfh, iTreg.

[4] = tested on: IL-2; assay: Inflammatory markers: IL-2; settings: for IL-2 Change over control [%]: vs Exercise Control, 28 days
Experimental: as §1, §2, §3, §4

[5] = tested on: IL-10; assay: Inflammatory markers: IL-10; settings: for IL-10 (pg/ml): after 28 days of supplementation and exercise, mice, n = 8; for IL-10 Change over control [%]: vs Exercise Control, 28 days
Experimental: as §1, §2, §3, §4

[6] = tested on: TH17; assay: Immune health biomarkers (T helper subsets): TH17; settings: for TH17(%): T helper subset in blood after 28 days, mice, n = 8; for TH17 Change over control [%]: vs Exercise Control, 28 days
Experimental: PMI Nutrition International, Brentwood, MO, USA). Distilled water was provided ad libitum. All animal experiments were reviewed and approved by the Institutional Animal Ethical Committee (IAEC) of Radiant Research Services Pvt. Ltd (Bangalore, India). All research was conducted in accordance with the guidelines of the committee for the purpose of control and supervision of experiments on animals (CPCSEA Registration Number-1803/PO/[…]). […] (1) vehicle control; […] (4) paraxanthine+dileucine; […] The dose administered to the mice was calculated using US Food and Drug Administration for human equivalence doses (HED), assuming a human weight of 60 kg. […] Dosing was conducted via oral gavage using disposable polypropylene syringes with sterilized stainless steel gavage tubes. The food intake and water consumption were monitored daily, and BW was recorded weekly. The last dose on day 28 was given 1 hour prior to testing. Serum and plasma samples were separated by centrifuging the blood at 8000 rpm for 10 mins and analyze the below mentioned biomarkers, Biomarkers: TC, TG, LDL and HDL, CRP, Serum lactate, Ammonia, Glucose, NO, IL-2, IL-6, IL-10. Blood was collected in EDTA tubes for below mentioned biomarkers, Immune health Biomarkers (T helper subsets): […]

[7] = tested on: iTreg; assay: Immune health biomarkers (T helper subsets): iTreg; settings: for iTreg(%) (mg/L) / iTreg(%): T helper subset in blood after 28 days, mice, n = 8; for iTreg Change over control [%]: vs Exercise Control, 28 days
Experimental: as §1, §2, §4

[8] = after 28 days of supplementation and exercise, mice, n = 8

Row | SMILES | Body Weight (grams) Day −0 [1] [grams] | Weight gain in grams [1] [grams] | Body Weight (grams) Day −28 [1] | Percentage weight loss over control [1] [%] | Distance travelled (m) by mice during treadmill exercise Day −0 [2] [m] | No. of shocks during treadmill exercise Day −0 [2] | Time spent on shock zone during excercise [sec] Day −0 [2] [s] | No. of shocks during treadmill exercise Day −28 [2] | Time spent on shock zone during excercise [sec] Day −28 [2] | Distance travelled (m) by mice during treadmill exercise Day −28 [2] | Distance Increase over Day −0 [2] [m] | No of Shocks Decrease over Day −0 [2] | Time spent on shock zone over Day −0 [2] [s] | Percentage Increase over control (time on shock zone) [2] [%] | Percentage Increase over control (number of shocks) [2] [%] | Percentage Increase over control (distance travelled) [2] [%] | LDL [3] [mg/dL] | LDL Change over control [%] [3] [%] | IL-2 Change over control [%] [4] [%] | IL-10 (pg/ml) [5] | further results
1 | CC(C)C[C@H](NC(=O)[C@@H](N)CC(C)C)C(=O)O [Dileucine, L-Leucyl-L-leucine] | 24.09 | 9.14 | 33.23* grams | −15 | 38.88 | 27.63 | 91 | 13*** | 31.88*** sec | 328.5*** m | 289.62 | −14.63 | -59.12 | 94 | 86 | 109 | 42.05 | −3 | 24 | 569.36*** pg/ml | IL-2 (ng/L) [4, 8]: 46.4*** ng/L; IL-10 Change over control [%] [5]: 8%; TH17(%) [6]: 29.62*** %; TH17 Change over control [%] [6]: 712%; iTreg(%) (mg/L) [7]: 18.68*** %; iTreg Change over control [%] [7]: −66%
2 | N=C(N)NCCC[C@H](N)C(=O)O [L-Arginine, L-arginine] | 23 | 10.01 | 33.01* grams | −7 | 39.13 | 30.38 | 90 | 16.75*** | 35.13*** sec | 314.25*** m | 275.12 | −13.63 | -54.87 | 80 | 73 | 98 | 44.66 | 3 | 23 | 565.47** pg/ml | IL-2 (ng/L) [4, 8]: 42.04*** ng/L; IL-10 Change over control [%] [5]: 5%; TH17(%) [6]: 26.16*** %; TH17 Change over control [%] [6]: 617%; iTreg(%) [7]: 35.86*** %; iTreg Change over control [%] [7]: −34%
3 | NC(=O)NCCC[C@H](N)C(=O)O [L-Citrulline, L-citrulline] | 22.49 | 9.83 | 33.01* grams | −9 | 38.5 | 28.63 | 90.88 | 17.00*** | 36.63*** sec | 312*** m | 273.5 | −11.63 | -54.25 | 78 | 48 | 97 | 44.01 | 1 | 25 | 559.63** pg/ml | IL-2 (ng/L) [4, 8]: 42.8*** ng/L; IL-10 Change over control [%] [5]: 4%; TH17(%) [6]: 25.89*** %; TH17 Change over control [%] [6]: 609%; iTreg(%) [7]: 38.83*** %; iTreg Change over control [%] [7]: −29%
4 | Cn1c(=O)[nH]c2ncn(C)c2c1=O [Paraxanthine, 1,7-dimethylxanthine] | 24.35 | 8.86 | 33.21* grams | −18 | 41.13 | 26.5 | 90.75 | 13.38*** | 32.25*** sec | 325.75*** m | 284.62 | −13.12 | -58.5 | 92 | 67 | 105 | 43.23 | −1 | 23 | 571.71*** pg/ml | IL-2 [4, 8]: 45.91 ng/L; IL-10 Change over control [%] [5]: 8%; TH17(%) [6]: 31.33*** %; TH17 Change over control [%] [6]: 758%; iTreg(%) (mg/L) [7]: 23.68*** %; iTreg Change over control [%] [7]: −57%
